Measured values reported in ChEMBL document CHEMBL3885881, “DrugMatrix”.

Species on record: Rattus norvegicus
Assay: DrugMatrix - Regimen: Daily Repeat
Type: toxicity, organism-based, Sprague-Dawley
Set-up: regimen Daily Repeat, gender Male, age 6-8 weeks
Details: in vivo, po, route oral GAVAGE, vehicle .5 % CMC; for BASOPHIL / EOSINOPHIL / ERYTHROCYTE COUNT / HEMATOCRIT / HEMOGLOBIN / LEUKOCYTE COUNT / LYMPHOCYTE / MEAN CORPUSCULAR HEMOGLOBIN / MEAN CORPUSCULAR HEMOGLOBIN CONCENTRATION / MEAN CORPUSCULAR VOLUME / MONOCYTE / NEUTROPHIL / PLATELET COUNT: tissue Blood; for ALANINE AMINOTRANSFERASE / ALBUMIN / ALKALINE PHOSPHATASE / ASPARTATE AMINOTRANSFERASE / BLOOD UREA NITROGEN / CHLORIDE / CHOLESTEROL / CREATINE PHOSPHOKINASE / CREATININE / GLUCOSE / PHOSPHORUS / POTASSIUM / SODIUM / TOTAL BILIRUBIN / TOTAL PROTEIN: tissue Plasma
[1] = 0 mg/kg, 72 h, dose level Control, time 3 day
[2] = 0 mg/kg, 120 h, dose level Control, time 5 day
[3] = 59 mg/kg, 72 h, dose level Low, time 3 day
[4] = 59 mg/kg, 120 h, dose level Low, time 5 day

CC[C@@H](CO)NCCN[C@@H](CC)CO [ETHAMBUTOL]
BASOPHIL [1]: 0%
EOSINOPHIL [1]: 0.33%
ERYTHROCYTE COUNT [1]: 6.2 x10E6/uL
HEMATOCRIT [1]: 38.08%
HEMOGLOBIN [1]: 14.92 G/DL
LEUKOCYTE COUNT [1]: 11.13 x10E3/uL
LYMPHOCYTE [1]: 76%
MEAN CORPUSCULAR HEMOGLOBIN [1]: 24.1 pg
MEAN CORPUSCULAR HEMOGLOBIN CONCENTRATION [1]: 39.17 G/DL
MEAN CORPUSCULAR VOLUME [1]: 61.48 fL
MONOCYTE [1]: 3.83%
NEUTROPHIL [1]: 19.83%
PLATELET COUNT [1]: 1327.5 x10E3/uL
ALANINE AMINOTRANSFERASE [1]: 40.17 u/L
ALBUMIN [1]: 4.07 G/DL
ALKALINE PHOSPHATASE [1]: 372 u/L
ASPARTATE AMINOTRANSFERASE [1]: 67.17 u/L
BLOOD UREA NITROGEN [1]: 18.83 mg/dL
CHLORIDE [1]: 105.17 MEQ/L
CHOLESTEROL [1]: 78.17 mg/dL
CREATINE PHOSPHOKINASE [1]: 149.17 u/L
CREATININE [1]: 0.57 mg/dL
GLUCOSE [1]: 185.17 mg/dL
PHOSPHORUS [1]: 11.43 mg/dL
POTASSIUM [1]: 6.78 MEQ/L
SODIUM [1]: 152.83 MEQ/L
TOTAL BILIRUBIN [1]: 0.4 mg/dL
TOTAL PROTEIN [1]: 6.87 G/DL
BASOPHIL [2]: 0%
EOSINOPHIL [2]: 0%
ERYTHROCYTE COUNT [2]: 6.05 x10E6/uL
HEMATOCRIT [2]: 36.55%
HEMOGLOBIN [2]: 14.7 G/DL
LEUKOCYTE COUNT [2]: 11.8 x10E3/uL
LYMPHOCYTE [2]: 86.83%
MEAN CORPUSCULAR HEMOGLOBIN [2]: 24.37 pg
MEAN CORPUSCULAR HEMOGLOBIN CONCENTRATION [2]: 40.32 G/DL
MEAN CORPUSCULAR VOLUME [2]: 60.47 fL
MONOCYTE [2]: 0.83%
NEUTROPHIL [2]: 12.33%
PLATELET COUNT [2]: 1177 x10E3/uL
ALANINE AMINOTRANSFERASE [2]: 41.83 u/L
ALBUMIN [2]: 3.75 G/DL
ALKALINE PHOSPHATASE [2]: 377.5 u/L
ASPARTATE AMINOTRANSFERASE [2]: 60.83 u/L
BLOOD UREA NITROGEN [2]: 16 mg/dL
CHLORIDE [2]: 105.67 MEQ/L
CHOLESTEROL [2]: 67.83 mg/dL
CREATINE PHOSPHOKINASE [2]: 120.33 u/L
CREATININE [2]: 0.6 mg/dL
GLUCOSE [2]: 167.67 mg/dL
PHOSPHORUS [2]: 10.03 mg/dL
POTASSIUM [2]: 6.68 MEQ/L
SODIUM [2]: 150.5 MEQ/L
TOTAL BILIRUBIN [2]: 0.57 mg/dL
TOTAL PROTEIN [2]: 6.25 G/DL
BASOPHIL [3]: 0%
EOSINOPHIL [3]: 0.67%
ERYTHROCYTE COUNT [3]: 6.09 x10E6/uL
HEMATOCRIT [3]: 36.33%
HEMOGLOBIN [3]: 14.2 G/DL
LEUKOCYTE COUNT [3]: 11.65 x10E3/uL
LYMPHOCYTE [3]: 88%
MEAN CORPUSCULAR HEMOGLOBIN [3]: 23.7 pg
MEAN CORPUSCULAR HEMOGLOBIN CONCENTRATION [3]: 39.55 G/DL
MEAN CORPUSCULAR VOLUME [3]: 59.63 fL
MONOCYTE [3]: 0.33%
NEUTROPHIL [3]: 11%
PLATELET COUNT [3]: 1231 x10E3/uL
ALANINE AMINOTRANSFERASE [3]: 35.33 u/L
ALBUMIN [3]: 3.63 G/DL
ALKALINE PHOSPHATASE [3]: 327.67 u/L
ASPARTATE AMINOTRANSFERASE [3]: 58.33 u/L
BLOOD UREA NITROGEN [3]: 11.67 mg/dL
CHLORIDE [3]: 104.33 MEQ/L
CHOLESTEROL [3]: 68 mg/dL
CREATINE PHOSPHOKINASE [3]: 185 u/L
CREATININE [3]: 0.57 mg/dL
GLUCOSE [3]: 165.33 mg/dL
PHOSPHORUS [3]: 12.53 mg/dL
POTASSIUM [3]: 6.5 MEQ/L
SODIUM [3]: 149.67 MEQ/L
TOTAL BILIRUBIN [3]: 0.27 mg/dL
TOTAL PROTEIN [3]: 5.9 G/DL
BASOPHIL [4]: 0%
EOSINOPHIL [4]: 0%
ERYTHROCYTE COUNT [4]: 6.14 x10E6/uL
HEMATOCRIT [4]: 38.6%
HEMOGLOBIN [4]: 15.1 G/DL
LEUKOCYTE COUNT [4]: 11.85 x10E3/uL
LYMPHOCYTE [4]: 89.33%
MEAN CORPUSCULAR HEMOGLOBIN [4]: 24.7 pg
MEAN CORPUSCULAR HEMOGLOBIN CONCENTRATION [4]: 39.2 G/DL
MEAN CORPUSCULAR VOLUME [4]: 63.03 fL
MONOCYTE [4]: 0.67%
NEUTROPHIL [4]: 10%
PLATELET COUNT [4]: 1247.67 x10E3/uL
ALANINE AMINOTRANSFERASE [4]: 27.67 u/L
ALBUMIN [4]: 3.57 G/DL
ALKALINE PHOSPHATASE [4]: 273.67 u/L
ASPARTATE AMINOTRANSFERASE [4]: 55 u/L
BLOOD UREA NITROGEN [4]: 11.33 mg/dL
CHLORIDE [4]: 105.67 MEQ/L
CHOLESTEROL [4]: 89 mg/dL
CREATINE PHOSPHOKINASE [4]: 135.33 u/L
CREATININE [4]: 0.5 mg/dL
GLUCOSE [4]: 157.67 mg/dL
PHOSPHORUS [4]: 11.8 mg/dL
POTASSIUM [4]: 6.47 MEQ/L
SODIUM [4]: 151.33 MEQ/L
TOTAL BILIRUBIN [4]: 0.2 mg/dL
TOTAL PROTEIN [4]: 6 G/DL
